Results published in patent US5770378A, “Tricyclic retinoids, methods for their production and use” (Ligand Pharmaceuticals, Inc., priority 1995, dated 1998).

Tests used:
RAR and RXR receptors = experiment: Co-transfection assay, RAR and RXR receptors overall; format: cell-based; details: for potency profile versus 9-cis retinoic acid: pan-agonist compounds; for receptor subfamily selectivity: RAR versus RXR
Method: (§1) Utilizing the "cis-trans" or "co-transfection" assay described by Evans et al., Science, 240:889-95 (May 13, 1988), the disclosure of which is herein incorporated by reference, the retinoid compounds of the present invention were tested and found to have strong, specific activity as either selective RAR agonists, selective RXR agonists, or as pan-agonist activators of both RAR and RXR receptors. This assay is described in further detail in U.S. Pat. Nos. 4,981,784 and 5,071,773, the disclosures of which are incorporated herein by reference.
(§2) In the co-transfection assay, a cloned cDNA for an IR (e.g., human RARα, RARβ, RXRγ) under the control of a constitutive promoter (e.g., the SV 40 promoter) is introduced by transfection (a procedure to induce cells to take up foreign genes) into a background cell substantially devoid of endogenous IRs. This introduced gene directs the recipient cells to make the IR protein of interest. A second gene is also introduced (co-transfected) into the same cells in conjunction with the IR gene. This second gene, comprising the cDNA for a reporter protein, such as firefly luciferase (LUC), controlled by an appropriate hormone responsive promoter containing a hormone response element (HRE). This reporter plasmid functions as a reporter for the transcription-modulating activity of the target IR. Thus, the reporter acts as a surrogate for the products (mRNA then protein) normally expressed by a gene under control of the target receptor and its native hormone.
(§3) The co-transfection assay can detect small molecule agonists or antagonists of target IRs. Exposing the transfected cells to an agonist ligand compound increases reporter activity in the transfected cells. This activity can be conveniently measured, e.g., by increasing luciferase production, which reflects compound-dependent, IR-mediated increases in reporter transcription. […] . Increasing concentrations of a suspected antagonist will decrease the reporter signal (e.g., luciferase production). The co-transfection assay is therefore useful to detect both agonists and antagonists of specific IRs. Furthermore, it determines not only whether a compound interacts with a particular IR, but whether this interaction mimics (agonizes) or blocks (antagonizes) the effects of the native regulatory molecules on target gene expression, as well as the specificity and strength of this interaction.
To determine RAR and/or RXR agonist activity of the compounds of the present invention, the CV-1 cells were transiently transfected by calcium phosphate coprecipitation according to the procedure of Berger et al., 41 J.Steroid Biochem. Mol. Biol., 733 (1992) with the following receptor expressing plasmids: pRShRARα: Giguere et al., 330 Nature, 624 (1987); pRShRARβ and pRShRARγ, Ishikawa et al., 4 Mol. Endocrin., 837 (1990); pRShRXRα, Mangelsdorf et al., 345 Nature, 224 (1990); and pRSmRXRβ and pRSmRXRγ, Mangelsdorf et al., 6 Genes & Devel., 329 (1992), the disclosures of which are herein incorporated by reference. Each of these receptor expressing plasmids was co-transfected at a concentration of 5 ng/well, along with a basal reporter plasmid at 100 ng/well, the internal control plasmid pRS-β-Gal at 50 ng/well and filler DNA, pGEM at 45 ng/well.

RARs = experiment: Co-transfection assay, RARs overall; format: cell-based, human
Method: as §1, §2
as §3, with “interaction. […]” for “interaction.”

Compound	potency profile versus 9-cis retinoic acid (RAR and RXR receptors)	RAR activity (RARs)	receptor subfamily selectivity (RAR and RXR receptors)
CC(/C=C/CC1CCCc2cc3c(cc21)C(C)(C)CCC3(C)C)=C\C(=O)O (racemic) [Compound 124b, (2E,4E)-3-Methyl-6-(1,2,3,4,5,6,7,8-octahydro-5,5,8,8-tetramethylanthracen-1-yl)hexa-2,4-dienoic acid]	superior potency profiles	–	–
CC(/C=C/C=C1\CCCc2cc3c(cc21)C(C)(C)CCC3(C)C)=C\C(=O)O [Compound 109b, (2E,4E)-3-Methyl-6-[(E)-3,4,5,6,7,8-hexahydro-5,5,8,8-tetramethyl-2H-anthracen-1-ylidene]hexa-2,4-dienoic acid]	–	extremely potent RAR active	RAR selective
CC(/C=C/C=C1/CCOc2cc3c(cc21)C(C)(C)CCC3(C)C)=C\C(=O)O [Compound 144b]	superior potency profiles	extremely potent RAR active	–
CC(/C=C/C=C1\CCOc2cc3c(cc21)C(C)(C)CCC3(C)C)=C\C(=O)O [Compound 119b, (2E,4E)-3-Methyl-6-[(E)-2,3,6,7,8,9-hexahydro-6,6,9,9-tetramethyl-benzo[g]chromen-4-ylidene]hexa-2,4-dienoic acid]	–	extremely potent RAR active	RAR selective
CC(/C=C/C=C1/CCCc2cc3c(cc21)C(C)(C)CCC3(C)C)=C\C(=O)O [Compound 101b, (2E,4E)-3-Methyl-6-[(Z)-3,4,5,6,7,8-hexahydro-5,5,8,8-tetramethyl-2H-anthracen-1-ylidene]hexa-2,4-dienoic acid]	superior potency profiles	extremely potent RAR active	–
